From US9012493B2, “1-heterodiene derivative and pest control agent” (Nippon Soda Co., Ltd., priority 2009, dated 2015)

Columns and labels:
Assay type in all cases: in vivo
[1] = test system: Rice Armyworm (Mythimna Separata); assay: Efficacy test against rice armyworm, corn leaf dip; settings: 125 ppm, emulsifiable concentrate diluted with water, corn leaves immersed, second instar larvae, after 5 days, 25° C.
Method: (§1) Test Examples of the pest control agent thus obtained according to the present invention are shown below. In respective Test Examples, the insecticidal rate (%) was determined by the following calculation equation. Insecticidal rate (%)=(number of dead pests/number of released pests)×100
The emulsifiable concentrate obtained according to Formulation of Formulation Example 2 was diluted with water so as to control the concentration of the compound to 125 ppm. Leaves of corn were immersed in this diluted solution for 30 seconds and then air-dried. The leaves were put in a petri dish on which a filter paper is laid, and then five second instar larvae of rice armyworm were inoculated. After covering the petri dish with a glass lid, the petri dish was placed in a temperature-controlled room at a temperature of 25° C. and a humidity of 65%. After 5 days, life and death were examined and the insecticidal rate was determined. The test was repeated twice.

[2] = test system: Cotton Aphid (Aphis Gossypii); assay: Efficacy test against cotton aphid, spray on cucumber plant; settings: 125 ppm, emulsifiable concentrate diluted with water, sprayed over cucumber plant with nymphs, after 5 days, 25° C.
Method: as §1
The emulsifiable concentrate obtained according to Formulation of Formulation Example 2 was diluted with water so as to control the concentration of the compound to 125 ppm. Adults of cotton aphids were inoculated to a cucumber plant (approximately 10 days after sprouting) sown in a 3 sun/size pot (9 cm). After 1 day, adult aphids were removed and the diluted solution was sprayed over the cucumber plant on which delivered nymphs are parasitic. The pot was placed in a temperature-controlled room at a temperature of 25° C. and a humidity of 65%. After 5 days, life and death were examined and the insecticidal rate was determined. The test was repeated twice.

[3] = test system: Sweetpotato Whitefly (Bemisia Tabaci); assay: Efficacy test against sweetpotato whitefly, sprayed tomato leaf; settings: 125 ppm, emulsifiable concentrate diluted with water, adults (type B), after 2 days, 25° C.
Method: as §1
The emulsifiable concentrate obtained according to Formulation of Formulation Example 2 was diluted with water so as to control the concentration of the compound to 125 ppm. The diluted solution was sprayed over a tomato leaf obtained by cutting and then air-dried. Using absorbent cotton, the leaf was fixed to a flask so that a front surface of the leaf faces upward. Seven pairs of adults of sweetpotato whitefly (type B) were inoculated in this container, and the container was placed in a temperature-controlled room at a temperature of 25° C. and a humidity of 65%. After 2 days, life and death were examined and the insecticidal rate was determined. The test was repeated twice.

[4] = test system: Twospotted Spider Mite (Tetranychus Urticae Koch); assay: Efficacy test against twospotted spider mite, spray on kidney bean plant; settings: 125 ppm, wettable powder diluted with water, sprayed, female adults with resistance to an organophosphorus agent on kidney bean, after 3 days
Method: The wettable powder obtained according to Formulation of Formulation Example 1 was diluted with water so as to control the concentration of the compound to 125 ppm. Seventeen female adults of twospotted spider mite with resistance to an organophosphorus agent were inoculated on a first true leaf of a kidney bean plant (approximately 7 to 10 days after sprouting) sown in a 3 sun/size pot (9 cm). The diluted solution was sprayed. The pot was placed in a temperature-controlled room at a temperature of 25° C. and a humidity of 65%. After 3 days, the adulticidal rate was examined. The test was repeated twice.

C=C1SC(=Nc2ccc(C)cc2)C(=CSc2cccc(F)c2)CC1(C)C (mixture of isomers) [Compound 2-84]
100%: insecticidal rate [1] | insecticidal rate [2] | insecticidal rate [3] | adulticidal rate [4]

C=C1SC(=Nc2ccc(C)cc2)C(=CSc2ccccc2F)CC1(C)C (mixture of isomers) [Compound 2-85]
100%: insecticidal rate [1] | insecticidal rate [2] | insecticidal rate [3] | adulticidal rate [4]

C=C1SC(=Nc2ccc(C)cc2)C(=CSc2ccc(C)cc2)CC1(C)C (mixture of isomers) [Compound 2-86]
100%: insecticidal rate [1] | insecticidal rate [2] | insecticidal rate [3] | adulticidal rate [4]

C=C1SC(=Nc2ccc(C)cc2)C(=CSc2ccc(Cl)cc2)CC1(C)C (mixture of isomers) [Compound 2-87]
100%: insecticidal rate [1] | insecticidal rate [2] | insecticidal rate [3] | adulticidal rate [4]

C=C1SC(=Nc2ccc(C)cc2)C(=CSc2cccc3ccccc23)CC1(C)C (mixture of isomers) [Compound 2-89]
100%: insecticidal rate [1] | insecticidal rate [2] | insecticidal rate [3] | adulticidal rate [4]

CC(C)=C1CCC(=CSc2ccc(F)cc2)C(=Nc2ccc(C)cc2)S1 (mixture of isomers) [Compound 6-2]
100%: insecticidal rate [1] | insecticidal rate [3] | adulticidal rate [4]

C=C1SC(=Nc2ccc(C)cc2)C(=CSc2cccnc2)CC1(C)C (mixture of isomers) [Compound 6-6]
100%: insecticidal rate [1] | insecticidal rate [3] | adulticidal rate [4]

C=C1SC(=Nc2ccc(C)cc2)C(=CSc2ccc(F)cc2F)CC1(C)C (mixture of isomers) [Compound 6-7]
100%: insecticidal rate [1] | insecticidal rate [3] | adulticidal rate [4]

C=C1SC(=Nc2ccccc2OC)C(=CSc2ccccc2)CC1(C)C [Compound 2-27]
100%: insecticidal rate [1] | insecticidal rate [3] | adulticidal rate [4]

C=C1SC(=Nc2cc(OC)cc(OC)c2)C(=CSc2ccccc2)CC1(C)C [Compound 2-38]
100%: insecticidal rate [3] | adulticidal rate [4]

C=C1SC(=Nc2ccc(OC)cc2)C(=CSc2ccccn2)CC1(C)C [Compound 2-50]
100%: insecticidal rate [2] | insecticidal rate [3] | adulticidal rate [4]

C=C1SC(=Nc2ccc(OC)cc2)C(=CSc2cccs2)CC1(C)C [Compound 2-51]
100%: insecticidal rate [2] | adulticidal rate [4]

C=C1SC(=Nc2ccc(C)cc2OC)C(=CSc2ccccc2)CC1(C)C [Compound 2-59]
100%: insecticidal rate [1] | insecticidal rate [3] | adulticidal rate [4]

C=C1SC(=Nc2c(C)cc(C)cc2C)C(=CSc2ccccc2)CC1(C)C [Compound 2-63]
100%: insecticidal rate [1] | insecticidal rate [2] | insecticidal rate [3]

C=C1SC(=Nc2c(F)cc(OC)cc2F)C(=CSc2ccccc2)CC1(C)C [Compound 2-65]
100%: insecticidal rate [1] | insecticidal rate [2] | insecticidal rate [3]

C=C1SC(=Nc2c(C)cc(C)cc2C)C(=CSc2cccs2)CC1(C)C [Compound 2-66]
100%: insecticidal rate [1] | insecticidal rate [2] | insecticidal rate [3]

C=C1SC(=Nc2c(C)cc(OC)cc2C)C(=CSc2ccccc2)CC1(C)C [Compound 2-67]
100%: insecticidal rate [1] | insecticidal rate [2] | insecticidal rate [3]

C=C1SC(=Nc2ccc(C)cc2)C(=CSc2nccs2)CC1(C)C [Compound 2-73]
100%: insecticidal rate [1] | insecticidal rate [2] | adulticidal rate [4]

C=C1SC(=Nc2ccc(C)cc2)C(=CSc2cccc(Cl)n2)CC1(C)C [Compound 2-91]
100%: insecticidal rate [1] | insecticidal rate [2] | insecticidal rate [3]

C=C1SC(=Nc2ccc(C)cc2)C(=CSc2ccncc2)CC1(C)C [Compound 2-92]
100%: insecticidal rate [1] | insecticidal rate [3] | adulticidal rate [4]

C=C1SC(=Nc2ccc(C)cc2)C(=CSc2ccoc2C)CC1(C)C [Compound 2-93]
100%: insecticidal rate [1] | insecticidal rate [2] | insecticidal rate [3]

C=C1SC(=Nc2ccc(C)cc2)C(=CSc2ccc(N(C)C)cc2)CC1(C)C [Compound 2-97]
100%: insecticidal rate [1] | insecticidal rate [2] | insecticidal rate [3]

C=C1SC(=Nc2ccc(C)cc2)C(=CSc2nccc(C(F)(F)F)n2)CC1(C)C [Compound 2-98]
100%: insecticidal rate [1] | insecticidal rate [2] | insecticidal rate [3]

C=C1SC(=Nc2ccc(C)cc2)C(=CSc2cccc(Br)c2)CC1(C)C [Compound 2-101]
100%: insecticidal rate [1] | insecticidal rate [3] | adulticidal rate [4]

C=C1SC(=Nc2ccc(C)cc2)C(=CSc2ccccc2Br)CC1(C)C [Compound 2-102]
100%: insecticidal rate [1] | insecticidal rate [3] | adulticidal rate [4]

C=C1SC(=Nc2ccc(C)cc2)C(=CSc2sccc2C)CC1(C)C [Compound 2-104]
100%: insecticidal rate [1] | insecticidal rate [3] | adulticidal rate [4]

C=C1SC(=Nc2ccc(C)cc2)C(=CSc2cccc(C(C)=O)c2)CC1(C)C [Compound 2-105]
100%: insecticidal rate [1] | adulticidal rate [4]

C=C1SC(=Nc2ccc(C)cc2)C(=CSc2cccc(C#N)c2)CC1(C)C [Compound 2-106]
100%: insecticidal rate [1] | insecticidal rate [3] | adulticidal rate [4]

C=C1SC(=Nc2ccc(C)cc2)C(=CSc2ccccc2C)CC1(C)C [Compound 2-111]
100%: insecticidal rate [1] | adulticidal rate [4]

C=C1SC(=Nc2ccc(C)cc2)C(=CSCc2ccccc2)CC1(C)C [Compound 2-112]
100%: insecticidal rate [1] | insecticidal rate [2] | insecticidal rate [3]

C=C1SC(=Nc2ccc(C)cc2)C(=CSc2ccc3ccccc3n2)CC1(C)C [Compound 2-113]
100%: insecticidal rate [1] | adulticidal rate [4]

C=C1SC(=Nc2ccc(C)cc2)C(=CSc2c(F)cccc2F)CC1(C)C [Compound 2-114]
100%: insecticidal rate [1] | insecticidal rate [3] | adulticidal rate [4]

C=C1SC(=Nc2ccc(C)cc2)C(=CSc2c(C)cccc2C)CC1(C)C [Compound 2-119]
100%: insecticidal rate [1] | insecticidal rate [3] | adulticidal rate [4]

C=C1SC(=Nc2ccc(C)cc2)C(=CSc2nccc(C)n2)CC1(C)C [Compound 2-121]
100%: insecticidal rate [1] | insecticidal rate [2] | insecticidal rate [3]

C#CCSC=C1CC(C)(C)C(=C)SC1=Nc1ccc(C)cc1 [Compound 2-122]
100%: insecticidal rate [1] | insecticidal rate [2] | insecticidal rate [3]

C=C1SC(=Nc2ccc(OC)cc2)C(=CSc2nccc(C)n2)CC1(C)C [Compound 2-127]
100%: insecticidal rate [1] | insecticidal rate [2] | insecticidal rate [3]

C=C1SC(=Nc2ccccc2)C(=CSc2nccc(C)n2)CC1(C)C [Compound 2-128]
100%: insecticidal rate [1] | insecticidal rate [2] | insecticidal rate [3]

C=C1SC(=Nc2ccccc2)C(=CSc2cccs2)CC1(C)C [Compound 2-129]
100%: insecticidal rate [1] | insecticidal rate [2] | insecticidal rate [3]

C=C1SC(=Nc2ccc(C)c(C)c2)C(=CSc2nccc(C)n2)CC1(C)C [Compound 2-132]
100%: insecticidal rate [1] | insecticidal rate [2] | insecticidal rate [3]

C=C1SC(=Nc2ccc(C)cc2)C(=CSc2ccc(C(C)C)cc2)CC1(C)C [Compound 2-151]
100%: insecticidal rate [1] | insecticidal rate [3] | adulticidal rate [4]
